Series [1] can be described thus: In vitro permeation through Nuclepore synthetic membrane (intact or modified by formulation), Franz diffusion cell. Type of series: in vitro ADME. The settings on record: for percent permeation: at 4 h. An excerpt: (§1) Three types of membranes were used in this study, a synthetic membrane and two biological membranes, porcine skin and porcine sublingual oral mucosa. […] The biological membranes were a porcine sublingual mucosa and porcine skin. The porcine tongues with sublingual mucosa were supplied by the Faculty of Pharmacy of the University of Barcelona from the Hospital de Bellvitge campus according to the protocols of the ethics committee and with the supervision of the above institution. The mucous membrane was dermatomed to a thickness of 500–700 µm (Dermatome GA630, Aesculap, Tuttlingen, Germany), and portions of the sublingual oral mucosa were obtained to fit in the Franz diffusion cells. In addition, to determine the specific thickness, each mucosal portion was measured with a digital micrometer (MAHR, Göttingen, Germany). Porcine skin was obtained from the unboiled back of a Landrace large white pig (3 months old, weight around 40 kg) (supplied by the Department of Cardiology of the Clinic Hospital of Barcelona). Animal handling was approved by the Institutional Review Board and Ethics Committee of Institut d’Investigacions Biomèdiques August Pi i Sunyer (IDIBAPS), and the management of the animals conformed to the Guide for the Care and Use of Laboratory Animals. Porcine skin was dermatomed to a thickness of 500 ± 50 µm (Dermatome GA630, Aesculap, Germany) and stored at −20 °C until further use.
The Nuclepore synthetic membrane, sublingual mucosa, and porcine skin dermatomed to a thickness of 500–700 µm were used to evaluate the permeation of drug/biocidal compounds. These studies were performed using a Franz vertical diffusion cell (Lara Spiral, Couternon, France) as described before. […]
(§2) Next, a pseudoinfinite dose (300 µL) of the drug or biocidal solution was applied to each Franz cell. […] The permeation of three biocides, Fungitrol (FUN), propiconazole (PRO), and permethrin (PER), was also determined. […]
(§3) The release of each compound was evaluated by determining the cumulative amount permeated (Qn, μg/cm^2), which corresponds to the cumulative amount of the substance quantified in the receiving liquid per unit of surface area of the applied sample [31].
(§4) The experimental Qn and % compound release data were used to construct graphs showing permeation over time. […] The model was determined with the nonlinear regression software STATGRAPHICS plus 5 (Statgraphics Technologies, Inc., The Plains, VA, USA), and the best equation was selected based on the highest correlation coefficient corrected for the number of degrees of freedom (R^2 DoFs).
Parameters were obtained from the graph. Fluxes (J, μg/cm^2/h) from the tested compounds were calculated from the slope of the linear portion of the cumulative amounts permeated through the membrane per unit surface area versus time plot. […]

Series [2] is described as follows: In vitro permeation through porcine skin, Franz diffusion cell. The format is in vitro ADME. The settings on record: after 4 h.
Source text: Three types of membranes were used in this study, a synthetic membrane and two biological membranes, porcine skin and porcine sublingual oral mucosa. […] The biological membranes were a porcine sublingual mucosa and porcine skin. The porcine tongues with sublingual mucosa were supplied by the Faculty of Pharmacy of the University of Barcelona from the Hospital de Bellvitge campus according to the protocols of the ethics committee and with the supervision of the above institution. The mucous membrane was dermatomed to a thickness of 500–700 µm (Dermatome GA630, Aesculap, Tuttlingen, Germany), and portions of the sublingual oral mucosa were obtained to fit in the Franz diffusion cells. In addition, to determine the specific thickness, each mucosal portion was measured with a digital micrometer (MAHR, Göttingen, Germany). […]
as §2
The release of each compound was evaluated by determining the cumulative amount permeated (Qn, μg/cm^2), which corresponds to the cumulative amount of the substance quantified in the receiving liquid per unit of surface area of the applied sample [31]. […]

Series [3] in a line: In vitro permeation through porcine sublingual mucosa (intact or modified by formulation), Franz diffusion cell. The format is in vitro ADME.
Source text: as §1
The Nuclepore synthetic membrane, sublingual mucosa, and porcine skin dermatomed to a thickness of 500–700 µm were used to evaluate the permeation of drug/biocidal compounds. These studies were performed using a Franz vertical diffusion cell (Lara Spiral, Couternon, France) as described before. The receiving fluid (RF) used was PBS:EtOH (1:1) for drug permeation and EtOH:H2O (75:25) for biocide permeation, assuring sink conditions of the compounds.
Next, a pseudoinfinite dose (300 µL) of the drug or biocidal solution was applied to each Franz cell. Solutions were applied in triplicate to determine the kinetic parameters. […] The permeation of three biocides, Fungitrol (FUN), propiconazole (PRO), and permethrin (PER), was also determined. The biocides were dissolved in ethanol, each at a concentration of 1%.
Samples (0.2 mL) were collected at different times (0 h, 0.5 h, 1 h, 2 h, and 4 h), and the same volume of receptor fluid was immediately added back for replacement.
as §3, §4
Parameters were obtained from the graph. Fluxes (J, μg/cm^2/h) from the tested compounds were calculated from the slope of the linear portion of the cumulative amounts permeated through the membrane per unit surface area versus time plot. The permeability coefficients (Kp, cm/h) were obtained by dividing the J by the initial drug/biocide concentration. And Cmax represented the maxima concentration permeated for each active substance.
As in the previous TMWL assay, dermatomed porcine sublingual mucosa and split skin at a thickness of 500–700 µm as well as the synthetic Nuclepore membrane were used in this study.

For series [4] the following is noted: cited from earlier work.

The molecule `Cn1c(=O)c2c(ncn2C)n(C)c1=O` [Caffeine] had a maximum permeation in series [1] (Nuclepore membrane (NP), between 0.5 and 4 h) of 50%. Besides, the percent permeation in series [1] (Nuclepore modified with formulation 6 (NP F6)) is reported as 65%; in series [1] (Nuclepore modified with hydrophobic formulation 3 (NP F3)), 40%; in series [1] (Nuclepore modified with liposomal formulation 16 (printed NP F6)) it was 40%; in series [2], “approximately 10%”; in series [3] (mucosa modified with formulation 6 (MUC F6), at 4 h) it was 60%; in series [3] (mucosa modified with hydrophobic formulation 3 (MUC F3), at 4 h), “approximately 10%”. The percent permeation result in series [3] (mucosa modified with liposomal formulation 16 (printed MUC F6), at 4 h) is listed as “approximately 10%”. Also, the “Permeability Coef. Kp” value is 8.3 ± 2.5 10^−3 cm/h in series [3] (MUCOSA F3: mucosa modified with formulation 3), 49.3 ± 0.1 10^−3 cm/h in series [3] (MUCOSA F6: mucosa modified with formulation 6) and 6.4 ± 0.9 10^−3 cm/h in series [3] (MUCOSA F16: mucosa modified with formulation 16). Further, the “percent permeation (release)” value in series [3] (sublingual mucosa (MUC), at 4 h) is 40%.

For the molecule `C[C@@H]1C[C@H]2[C@@H]3CCC4=CC(=O)C=C[C@]4(C)[C@@]3(F)[C@@H](O)C[C@]2(C)[C@@]1(O)C(=O)CO` [Dexametasone, dexamethasone], in series [4], the “Log Ko/w (pH 7.4)” value was 1.8 [40].

`O=C(c1ccccc1)c1ccc2n1CCC2C(=O)O` (centres unmarked) [Ketorolac tromethamine, ketorolac tromethamine]: the “Log Ko/w (pH 7.4)” value in series [4] was 2.3 [39].

Consider `CC1(C)C(C=C(Cl)Cl)C1C(=O)OCc1cccc(Oc2ccccc2)c1` (centres unmarked) [Permethrin, permethrin], for which the “Log Ko/w (pH 7.4)” value in series [4] was 6.5 [44].

For `CCCC1COC(Cn2cncn2)(c2ccc(Cl)cc2Cl)O1` (centres unmarked) [Propiconazole, propiconazole], the “Log Ko/w (pH 7.4)” value in series [4] is 3.5 [43].

Regarding Fungitrol, the “Log Ko/w (pH 7.4)” value in series [4] is 2.4 [42].

The values above are taken from paper PMC10745054, “A Synthetic Model of the Mucosa for Oral Penetration Studies” (Membranes, 2023).
